Results: the NIST ThermoML archive (doi:10.1021/je0340755)
Numbers after ± are expanded uncertainties.

Experiments:
[1] = refractive index (Na D-line) (dimensionless); conditions: 298.15 K; 101.33 kPa; Liquid; Standard Abbe refractometry
[2] = 101.33 kPa, Liquid; for viscosity: Capillary tube (Ostwald / Ubbelohde) method
[3] = 298.15 K, Linear variable-path acoustic interferometer
[4] = 308.15 K, Linear variable-path acoustic interferometer
[5] = 318.15 K, Linear variable-path acoustic interferometer
[6] = 328.15 K, Linear variable-path acoustic interferometer
[7] = 338.15 K, Linear variable-path acoustic interferometer

Row | SMILES | refractive index [1] | mass density ([2]; 298.15 K) [kg/m3] | speed of sound ([2]; 298.15 K) [m/s] | viscosity ([2]; 298.15 K) [mPa·s] | mass density ([2]; 308.15 K) [kg/m3] | speed of sound ([2]; 308.15 K) [m/s] | viscosity ([2]; 308.15 K) [mPa·s] | mass density ([2]; 318.15 K) [kg/m3] | speed of sound ([2]; 318.15 K) [m/s] | viscosity ([2]; 318.15 K) [mPa·s] | mass density ([2]; 328.15 K) [kg/m3] | speed of sound ([2]; 328.15 K) [m/s] | viscosity ([2]; 328.15 K) [mPa·s] | mass density ([2]; 338.15 K) [kg/m3] | viscosity ([2]; 338.15 K) [mPa·s] | speed of sound [2, 3] [m/s] | speed of sound [2, 4] [m/s] | speed of sound [2, 5] [m/s] | speed of sound [2, 6] [m/s] | speed of sound [2, 7] [m/s] | other results
1 | CC(O)CCO (stereo not given) [1,3-butanediol] | 1.439 ± 0.0004 | 1000.03 ± 0.35 | 1522.1 ± 6.3 | 97.25 ± 1.1 | 994.22 ± 0.37 | 1492.1 ± 6.2 | 52.5 ± 0.15 | 988.7 ± 0.38 | 1472 ± 6.1 | 30.49 ± 0.15 | 979.18 ± 0.4 | 1453.9 ± 6.1 | 18.91 ± 0.11 | 971.91 ± 0.42 | 12.28 ± 0.087 | – | – | – | – | – | speed of sound ([2]; 338.15 K): 1436.1 ± 6 m/s
2 | CC(O)C(C)O (stereo not given) [2,3-butanediol] | 1.4366 ± 0.0004 | 998.57 ± 2 | 1470.2 ± 7.9 | 44.68 ± 0.21 | 992.11 ± 2 | 1440 ± 7.8 | 22.95 ± 0.12 | 984.13 ± 2 | 1412.2 ± 7.7 | 12.8 ± 0.088 | 970.58 ± 2 | 1392 ± 7.6 | 7.722 ± 0.074 | 961.97 ± 2 | 5.195 ± 0.069 | – | – | – | – | – | speed of sound ([2]; 338.15 K): 1373.9 ± 7.5 m/s
3 | CCC(O)CO (stereo not given) [1,2-butanediol] | 1.4374 ± 0.0004 | 998.86 ± 0.36 | – | 57.46 ± 0.2 | 991.42 ± 0.37 | – | 30.18 ± 0.15 | 983.93 ± 0.39 | – | 17.41 ± 0.1 | 976.09 ± 0.41 | – | 10.9 ± 0.083 | 968.11 ± 0.43 | 7.257 ± 0.073 | 1452 ± 2.2 | 1423.8 ± 2.2 | 1396.2 ± 2.2 | 1387 ± 2.1 | 1366 ± 2.1 | –
4 | OCCCO [propan-1,3-diol] | 1.4386 ± 0.0004 | 1049.99 ± 0.49 | – | 40.07 ± 0.19 | 1043.71 ± 0.47 | – | 27.25 ± 0.14 | 1037.37 ± 0.45 | – | 17.01 ± 0.1 | 1030.96 ± 0.43 | – | 11.28 ± 0.084 | 1024.47 ± 0.42 | 7.939 ± 0.075 | 1636.1 ± 2.3 | 1616 ± 2.3 | 1599.2 ± 2.2 | 1575.9 ± 2.2 | 1557 ± 2.2 | –
5 | CC(O)CO (stereo not given) [1,2-propanediol] | 1.4314 ± 0.0004 | 1032.77 ± 0.44 | – | 43.43 ± 0.21 | 1025.4 ± 0.42 | – | 24.25 ± 0.13 | 1017.32 ± 0.4 | – | – | 1009.56 ± 0.38 | – | 9.691 ± 0.079 | 1001.81 ± 0.36 | 7.044 ± 0.073 | 1500.1 ± 2.2 | 1488.9 ± 2.2 | 1438.1 ± 2.2 | 1401 ± 2.2 | 1382.8 ± 2.1 | –
6 | O [water] | 1.3323 ± 0.0004 | – | – | 0.89 ± 0.063 | – | – | 0.719 ± 0.063 | – | – | 0.596 ± 0.063 | – | – | 0.503 ± 0.063 | – | 0.438 ± 0.063 | 1498 ± 2.1 | 1519 ± 2.2 | 1535.1 ± 2.2 | 1545 ± 2.2 | 1551 ± 2.2 | –
7 | OCCCCO [1,4-butanediol] | 1.4442 ± 0.0004 | 1012.57 ± 0.45 | 1605.1 ± 6.5 | 72.62 ± 0.5 | 1006.4 ± 0.43 | 1588 ± 6.5 | 44.87 ± 0.21 | 1000.76 ± 0.41 | 1570.8 ± 6.4 | 29.07 ± 0.15 | – | 1552.1 ± 6.4 | 19.48 ± 0.11 | 987.93 ± 0.45 | 13.49 ± 0.09 | – | – | – | – | – | speed of sound ([2]; 338.15 K): 1529 ± 6.3 m/s
